Data on four compounds can be found in ChEMBL document CHEMBL3046759, “Seed and leaf treatments with natural compounds to induce resistance against Peronospora parasitica in Brassica oleracea” (2012).

Active and inactive are the calls of the source. The rule behind the calls is not given here.

The subject of assay [1] is Hyaloperonospora parasitica. Description: Induction of systemic acquired resistance against Hyaloperonospora parasitica-induced downy mildew disease in white cabbage assessed as infected leaf area sprayed on leaves of one week old seedlings relative to untreated control. In kind it is functional.
For assay [2], the system named is Hyaloperonospora parasitica. Kind of assay: Induction of systemic acquired resistance against Hyaloperonospora parasitica-induced downy mildew disease in white cabbage assessed as disease index at 1 mM sprayed on leaves exposed to compound for 2 to 48 hr measured 10 days after planting. In kind it is functional, organism-based. Particulars: TDE = time-dependent effect.

Assay [3] relates to Brassica oleracea. Description: Induction of systemic acquired resistance in Brassica oleracea (white cabbage) plants assessed as increase in chitinase activity at 1 mM sprayed on seeds by colorimetric assay. In kind it is functional, organism-based.
In assay [4] the test system is Brassica oleracea. Kind of assay: Induction of systemic acquired resistance in Brassica oleracea (white cabbage) plants assessed as increase in chitinase activity at 1 mM sprayed on leaves exposed to compound for 2 to 48 hr measured 10 days after planting by colorimetric assay. In kind it is functional, organism-based. The following applies: TDE = time-dependent effect.

In assay [5] the test system is Brassica oleracea. Kind of assay: Induction of systemic acquired resistance in Brassica oleracea (white cabbage) plants assessed as increase in chitinase activity at 1 mM sprayed on leaves of 3 weeks old seedlings by colorimetric assay. The class given is functional, organism-based.
In assay [6] the test system is Brassica oleracea. Description: Induction of systemic acquired resistance in Brassica oleracea (white cabbage) plants assessed as increase in glucanase activity at 1 mM sprayed on seeds by colorimetric assay. The class given is functional, organism-based.
For assay [7], the system named is Brassica oleracea. Description: Induction of systemic acquired resistance in Brassica oleracea (white cabbage) plants assessed as increase in glucanase activity at 1 mM sprayed on leaves of 3 weeks old seedlings by colorimetric assay. The class given is functional, organism-based.
Assay [8] concerns Brassica oleracea. Kind of assay: Induction of systemic acquired resistance in Brassica oleracea (white cabbage) plants assessed as increase in glucanase activity at 1 mM sprayed on leaves exposed to compound for 2 to 48 hr measured 10 days after planting by colorimetric assay. Particulars: TDE = time-dependent effect. In kind it is functional, organism-based.
Assay [9] concerns Brassica oleracea. Description: Induction of systemic acquired resistance in Brassica oleracea (white cabbage) plants assessed as increase in glucanase activity at 10 mM sprayed on seeds by colorimetric assay. The class given is functional, organism-based.
For assay [10], the system named is Brassica oleracea. Description: Induction of systemic acquired resistance in Brassica oleracea (white cabbage) plants assessed as increase in chitinase activity at 10 mM sprayed on leaves of 3 weeks old seedlings by colorimetric assay. In kind it is functional, organism-based.
For assay [11], the system named is Brassica oleracea. Kind of assay: Induction of systemic acquired resistance in Brassica oleracea (white cabbage) plants assessed as increase in chitinase activity at 10 mM sprayed on seeds by colorimetric assay. In kind it is functional, organism-based.
Assay [12] concerns Brassica oleracea. Kind of assay: Induction of systemic acquired resistance in Brassica oleracea (white cabbage) plants assessed as increase in glucanase activity at 10 mM sprayed on leaves of 3 weeks old seedlings by colorimetric assay. In kind it is functional, organism-based.
Assay [13] relates to Hyaloperonospora parasitica. Description: Induction of systemic acquired resistance against Hyaloperonospora parasitica-induced downy mildew disease in white cabbage assessed as infected leaf area at 1 mM sprayed on leaves of one week old seedlings relative to untreated control. The class given is functional, organism-based.

On to `CCCOC(=O)NCCCN(C)C.Cl` [PROPAMOCARB HYDROCHLORIDE], for which, in [1], the Activity is 56.4%.

As to `O=C(O)c1cc(Cl)nc(Cl)c1`, the Activity entry (in assay [2]; in the assay with Brassica oleracea [4]; with Brassica oleracea [8]) was “tde” in each case. In addition, the outcome in the assay with Brassica oleracea [3], in the assay with Brassica oleracea [5], in the assay with Brassica oleracea [6] and in the assay with Brassica oleracea [7] was Active.

As to MANGANESE CHLORIDE ANHYDROUS, the outcome in the assay on Brassica oleracea [9] and in the assay on Brassica oleracea [11] was inactive. For the same compound, the outcome in the assay with Brassica oleracea [10] and in the assay on Brassica oleracea [12] was Active.

Consider CUPRIC SULFATE, for which the Activity in [13] worked out at 0.01%.
